This is an account of results in ChEMBL document CHEMBL4483862, “Open-source discovery of chemical leads for next-generation chemoprotective antimalarials” (2018).

In the test the test system is Plasmodium berghei. Kind of test: Luciferase/luciferin-expressing antifolate-resistant parasites were used to infect a culture of HepG2 cells that were pre-incubated with compounds. Infected hepatocytes emit light due to the luciferase reaction. Assay results are presented as the percent inhibition of light emission compared to control. […]. The test is classed as functional. The note with it: sporozoite; for IC50: read-out: LUCIFERASE INFECTION ASSAY - IC50; for IC90: read-out: LUCIFERASE INFECTION ASSAY - IC90.

What is called IC50 is the concentration needed to halve the response being measured. As a reminder, the IC90 is the concentration needed for an effect of 90%. Take `N#CC1=C2SC=C(c3ccc(Br)cc3)N2CCCC1=O`: the IC50 was more than 10 µM and the IC90 is more than 10 µM.

For the compound `O=C(Nc1ccccc1)c1nnsc1S(=O)(=O)c1ccc(Cl)cc1`, the IC50 was more than 8.69 µM and the IC90 is more than 8.69 µM.

In the case of `COc1ccc(Nc2ncnc3scc(-c4ccc(OC)cc4)c23)cc1`, the concentration for half-maximal inhibition (IC50) turned out to be 2.65 µM and the IC90 amounted to 4.29 µM.

As for `Cc1cc(C(=O)COC(=O)c2[nH]nc3ccccc23)c(C)n1CC1CCCO1` (stereo unspecified), the IC50 is 0.417 µM and the IC90 amounted to 0.491 µM.

For `Cc1ccc(S(=O)(=O)c2c(C)nn(C(C)(C)C)c2OC(=O)c2cccs2)cc1`, the IC50 is more than 10 µM and the IC90 was more than 10 µM.

In the case of `COc1cccc(C(=O)Nc2nc3ccccc3[nH]2)c1`, the IC50 is more than 10 µM and the IC90 is more than 10 µM.

Take `CN(C)CCNCc1ccc(OC2CCCC2)cc1`: the IC50 is more than 11 µM and the IC90 was more than 11 µM.

On to `COc1cc(C(=O)OCC#N)ccc1OCc1c(C)noc1C`, for which the IC50 is more than 10 µM and the IC90 is more than 10 µM.

Consider `CN(C)C(S)=Nc1ccc(Cl)cc1`, for which the IC50 is more than 15.4 µM and the IC90 was more than 15.4 µM.

Turning to `CCOc1ccc(C(=O)CCC(=O)O)cc1`, the IC50 was more than 14.8 µM and the IC90 was more than 14.8 µM.

Consider `CC(=O)c1cnc(N)nc1C`, for which the IC50 was more than 21.8 µM and the IC90 is more than 21.8 µM.

On to `CCn1c2ccccc2c2cc(N)ccc21`, for which the IC50 is more than 10 µM and the IC90 was more than 10 µM.

On to `CCOC(=O)c1c(C)nn(-c2ccc(NC(=O)Nc3ccc(Cl)cc3)cc2)c1C`, for which the IC50 was more than 7.99 µM and the IC90 was more than 7.99 µM.

Consider `COc1ccc2nc3[nH]nc(N)c3cc2c1`, for which the IC50 was more than 10 µM and the concentration for an effect of 90% (IC90) was more than 10 µM.

With `COc1ccc(C(=O)CSC2=NCCCC2)cc1`, the IC50 is more than 9.59 µM and the IC90 was more than 9.59 µM.

For `CCN(CC)c1ccc(NC(=S)NC(=O)c2ccco2)cc1S(=O)(=O)Nc1ccc(OC)cc1`, the IC50 is more than 10 µM and the IC90 is more than 10 µM.

`Cc1nn(Cc2n[nH]c(=S)o2)c(C)c1Br`: the half-maximal inhibitory concentration (IC50) was more than 11.4 µM and the IC90 is more than 11.4 µM.

With `CC(C(=O)Nc1cc(S(=O)(=O)N2CCCCC2)ccc1Cl)N1CCN(c2ccccn2)CC1` (stereo unspecified), the IC50 was more than 10 µM and the concentration for an effect of 90% (IC90) is more than 10 µM.

Take `Cc1sc2nc(CN3CCOCC3)nc(NCCOc3ccccc3)c2c1C`: the 50% inhibitory concentration (IC50) was more than 10 µM and the IC90 was more than 10 µM.

For `CCC(C)N1C(=O)Cc2c1nc(N)c1c(N)nc(N3CC(C)OC(C)C3)c(C#N)c21` (stereo unspecified), the IC50 is more than 10 µM and the IC90 was more than 10 µM.

Regarding `Cc1noc(C)c1C(=O)ONC(=N)c1ccc(OC(F)(F)F)cc1`, the IC50 is more than 9.61 µM and the IC90 is more than 9.61 µM.

In the case of `COC(=O)c1c(N)[nH]c2cc(C(F)(F)F)ccc12`, the IC50 was more than 12.8 µM and the IC90 was more than 12.8 µM.

As for `Clc1ccc(-c2csc(NCC3CCCO3)n2)cc1` (stereo unspecified), the IC50 is more than 11.2 µM and the IC90 was more than 11.2 µM.

Regarding `Cc1nc(-c2cccs2)sc1NC(=O)Nc1ccc(Cl)cc1`, the IC50 was more than 9.43 µM and the IC90 is more than 9.43 µM.

With `CCNc1ccc(S(=O)(=O)C(F)(F)F)cc1NC(=O)c1ccccc1NS(=O)(=O)c1ccc(F)cc1`, the half-maximal inhibitory concentration (IC50) is 1.44 µM and the IC90 was more than 10 µM.

For `CS(=O)(=O)c1sc(NC(=O)Nc2ccccc2Cl)c2ccccc12`, the IC50 was more than 8.66 µM and the IC90 was more than 8.66 µM.

In the case of `CS(=O)(=O)c1sc(NC(=O)Nc2ccc(Cl)cc2)c2c1C=CCC2`, the IC50 is more than 8.62 µM and the IC90 is more than 8.62 µM.

`C=CCn1c(C)cc(C(=O)Cn2c(=O)c(=O)n(Cc3ccccc3)c3ccc(Cl)cc32)c1C`: the IC50 was more than 10 µM and the IC90 is more than 10 µM.

Turning to `COC(=O)c1sc2nccnc2c1N`, the IC50 is more than 15.8 µM and the IC90 was more than 15.8 µM.

For the compound `C#CCCCCCCCCC(=O)NO`, the IC50 was more than 10 µM and the IC90 is more than 10 µM.

For `N#Cc1ccc(-c2csc(CS(=O)(=O)Cc3cccc(C(F)(F)F)c3)n2)cc1`, the concentration for half-maximal inhibition (IC50) is more than 7.81 µM and the IC90 is more than 7.81 µM.

Consider `Cc1csc(Sc2ncnc3c2cnn3C)n1`, for which the IC50 is more than 2 µM and the IC90 was more than 2 µM.

`CCN1CCN(C(=O)C23CC4CC(C2)CC(c2ccc(C)cc2)(C4)C3)CC1`: the IC50 was more than 10 µM and the IC90 was more than 10 µM.

On to `Cc1nn(S(=O)(=O)c2ccc(-c3ccccn3)s2)c(C)c1Br`, for which the IC50 is more than 8.29 µM and the IC90 is more than 8.29 µM.

In the case of `CN(C)c1ccc(C2CC(=O)c3ccccc3N2)cc1` (stereo unspecified), the IC50 was more than 12.4 µM and the IC90 is more than 12.4 µM.

As to `CCOC(=O)c1cnc(NNC(=O)c2ccc(Cl)cc2Cl)nc1C(F)(F)F`, the IC50 was more than 7.8 µM and the IC90 is more than 7.8 µM.

Regarding `CSc1nccc(-c2sc3scc(C)c3c2C)n1`, the 50% inhibitory concentration (IC50) was more than 11.3 µM and the IC90 is more than 11.3 µM.

For `CS(=O)(=O)c1ncc(Cl)c(C(=O)C(C#N)c2nc3ccccc3s2)n1` (stereo unspecified), the IC50 is 3.08 µM and the IC90 was 3.59 µM.

Consider `Clc1cncc2c1Sc1ccccc1N2`, for which the IC50 came to 14 µM and the IC90 is more than 14.1 µM.

`C=Cc1c(SC)sc(C(=O)O)c1C`: the IC50 was more than 15.4 µM and the IC90 was more than 15.4 µM.

Consider `Cc1ccc(-n2nc(C)c3c(C(=O)N4CCC(C)CC4)cc(-c4ccncc4)nc32)cc1`, for which the IC50 was more than 10 µM and the IC90 was more than 10 µM.

In the case of `C=S(=O)(NS(=O)(=O)c1ccc(-c2cc(C(F)(F)F)n(C)n2)s1)c1ccc(Cl)cc1` (stereo unspecified), the 50% inhibitory concentration (IC50) was more than 6.82 µM and the IC90 is more than 6.82 µM.

On to `Cc1nc2nc(-c3ccccc3)nn2c(N2CCCC2)c1Cc1ccccc1`, for which the IC50 amounted to 3.28 µM and the IC90 is more than 8.93 µM.

As to `Cc1cc(C(=N)NOC(=O)C(C)(C)C)cc(C(=N)NOC(=O)C(C)(C)C)c1`, the half-inhibitory concentration (IC50) is more than 8.77 µM and the 90% effect concentration (IC90) is more than 8.77 µM.

In the case of `O=C(NCc1ccc(C(F)(F)F)cc1)c1cc(C(F)(F)F)cc(C(F)(F)F)c1`, the IC50 is more than 7.95 µM and the IC90 was more than 7.95 µM.

With `CCC(CO)NC(=S)Nc1cc(C(F)(F)F)cc(C(F)(F)F)c1` (stereo unspecified), the IC50 is more than 9.16 µM and the IC90 was more than 9.16 µM.

For the compound `O=c1ccn(-c2ccc(Cl)cc2)nc1-c1ccnc(-c2ccccc2)n1`, the IC50 is more than 9.15 µM and the IC90 was more than 9.15 µM.

For `CC1=C(C(=O)c2ccc(Cl)cc2)C(c2ccc(C(F)(F)F)cc2)NC(=O)N1` (stereo unspecified), the IC50 is more than 10 µM and the IC90 is more than 10 µM.

Consider `CCOc1ccc2nc(NC(=O)C3Cc4ccccc4CN3S(=O)(=O)c3ccc(C)cc3)sc2c1` (stereo unspecified), for which the IC50 is more than 10 µM and the IC90 was more than 10 µM.

`Cc1ccc2nc(Cn3cc(C(F)(F)F)cc(Cl)c3=O)cn2c1`: the IC50 is more than 10 µM and the IC90 was more than 10 µM.

Turning to `CN(C)CCCNc1nc2sc3c(c2c(=O)n1-c1ccccc1)CCCCC3`, the IC50 is more than 8.32 µM and the IC90 is more than 8.32 µM.

Consider `CC(C)n1cc(-c2nc(C(=O)NNC(=O)c3ccccc3Cl)cs2)c(=O)n(Cc2ccccc2)c1=O`, for which the half-inhibitory concentration (IC50) is more than 6.3 µM and the IC90 is more than 6.3 µM.

Turning to `Cn1cc(C(=O)ONC(=N)c2ccc(C(C)(C)C)cc2)c(C(F)(F)F)n1`, the IC50 is more than 8.96 µM and the IC90 was more than 8.96 µM.

For the compound `O=C1c2ccccc2O[C@@H](c2ccccc2)[C@H]1O`, the IC50 was more than 13.7 µM and the IC90 is more than 13.7 µM.

With `O=C(CSCCCN1CCN(c2cccc(Cl)c2)CC1)NNC(=O)Nc1cc(Cl)cc(Cl)c1`, the IC50 was more than 6.22 µM and the IC90 is more than 6.22 µM.

Turning to `CCOC(=O)c1cc(C#N)c(Sc2ccccn2)nc1C(F)(F)F`, the IC50 is more than 9.34 µM and the 90% effect concentration (IC90) is more than 9.34 µM.

On to `Cc1ccc(-c2cc(=O)n(-c3nc4ccccc4[nH]3)[nH]2)cc1`, for which the IC50 is more than 11.4 µM and the IC90 was more than 11.4 µM.

Turning to `O=C1CC(c2ccccc2Cl)Cc2c1cnn2-c1nc2ccccc2[nH]1` (stereo unspecified), the IC50 stood at 3.26 µM and the IC90 worked out at 3.82 µM.

`Cc1ccccc1NC(=O)Nc1scc(S(=O)(=O)C(C)C)c1Cl`: the IC50 was more than 8.85 µM and the IC90 was more than 8.85 µM.

As for `Cc1ccc(NC(=O)c2cc(C(C)(C)C)n(-c3ccccc3)c2C)cc1`, the IC50 amounted to 0.52 µM and the IC90 was determined as 4.46 µM.

With `CC(C)(C)C(=O)ONC(N)=CS(=O)(=O)c1ccc(Cl)cc1`, the IC50 was more than 9.92 µM and the IC90 was more than 9.92 µM.

Turning to `Fc1ccc(-c2csc(NCC3CCCO3)n2)cc1` (stereo unspecified), the IC50 is more than 11.9 µM and the 90% effect concentration (IC90) was more than 11.9 µM.

Regarding `C=S(=O)(NC(=O)CSc1ccc(Cl)cc1)c1ccc(C)cc1` (stereo unspecified), the IC50 was more than 9.32 µM and the IC90 was more than 9.32 µM.

For the compound `Cc1nn(Cc2ccccc2Cl)c2sc(C(=O)NC3CCN(Cc4ccccc4)CC3)cc12`, the IC50 is more than 10 µM and the IC90 is more than 10 µM.

As for `CC(NC(=O)COC(=O)c1cc(O)c2ccccc2c1O)C1CC2CCC1C2` (stereo unspecified), the IC50 was more than 10 µM and the concentration for an effect of 90% (IC90) was more than 10 µM.

On to `OCCNCCNCc1c(OCc2ccccc2F)ccc2ccccc12`, for which the IC50 was more than 8.96 µM and the concentration for an effect of 90% (IC90) is more than 8.96 µM.

As for `O=C1C=CC(=O)N1c1ccc2c(c1)OCCO2`, the IC50 is more than 14.3 µM and the IC90 was more than 14.3 µM.

In the case of `FC(F)(F)c1cccnc1N1CCN(c2ccc(NC(=S)NCc3ccccc3)cn2)CC1`, the half-inhibitory concentration (IC50) was more than 6.98 µM and the IC90 is more than 6.98 µM.

With `O=C(Nc1nc2c(F)cc(F)cc2s1)c1cnccn1`, the IC50 was more than 10 µM and the IC90 was more than 10 µM.

Consider `Cc1sc2nc(CN3CCOCC3)nc(NCCc3c[nH]c4ccccc34)c2c1C`, for which the half-inhibitory concentration (IC50) is more than 10 µM and the IC90 was more than 10 µM.

For the compound `Cc1c(C(=O)O)cc(-c2ccccc2)n1CCNC(=O)OC(C)(C)C`, the IC50 was more than 9.58 µM and the concentration for an effect of 90% (IC90) was more than 9.58 µM.

In the case of `Cc1nn2c(SCC(=O)O)cc(C(C)(C)C)nc2c1-c1ccc(Cl)cc1`, the IC50 is more than 8.46 µM and the 90% effect concentration (IC90) is more than 8.46 µM.

As for `CCN(CC)c1ccc(NC(=O)c2ccc(C)cc2)c(N(CC)CC)n1`, the IC50 is more than 9.31 µM and the IC90 was more than 9.31 µM.
